# According to publication PMC12311865, “In Vitro Evaluation of the Potential Interactions of Zearalenone-14-sulfate and Zearalenone-14-glucuronide with Human Cytochrome P450 Enzymes, Organic Anion Transporting Polypeptides, and ATP-Binding Cassette Multidrug Transporters” (ACS Omega, 2025):
# Like-named read-outs stand apart in the source and are kept apart here.
# Tests used:
# [1] = molecular target: T1, CYP3A4 (Homo sapiens, UniProt P08684); assay: in vitro; format: biochemical; details: testosterone 5 μM
# T1 construct: purchased Merck
# T1 sequence (P08684 whole entry): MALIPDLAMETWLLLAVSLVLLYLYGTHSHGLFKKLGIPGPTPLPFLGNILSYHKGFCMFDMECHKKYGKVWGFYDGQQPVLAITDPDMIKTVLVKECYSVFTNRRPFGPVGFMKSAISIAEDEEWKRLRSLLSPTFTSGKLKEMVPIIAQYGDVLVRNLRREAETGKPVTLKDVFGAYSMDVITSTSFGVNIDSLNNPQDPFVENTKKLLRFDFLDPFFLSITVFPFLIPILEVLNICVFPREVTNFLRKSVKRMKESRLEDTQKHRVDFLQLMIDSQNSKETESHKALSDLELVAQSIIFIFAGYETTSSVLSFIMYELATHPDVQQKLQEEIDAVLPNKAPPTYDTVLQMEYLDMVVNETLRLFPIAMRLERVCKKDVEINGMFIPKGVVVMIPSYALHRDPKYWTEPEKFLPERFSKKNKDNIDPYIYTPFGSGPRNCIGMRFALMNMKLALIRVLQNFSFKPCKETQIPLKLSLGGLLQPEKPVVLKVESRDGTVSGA
# Description: Testosterone and 6β-hydroxytestosterone were detected at 240 nm.
# [2] = molecular target: T2, OATP2B1 (Homo sapiens, UniProt O94956); assay: OATP2B1-mediated pyranine uptake in overexpressing A431 cells; format: cell-based
# T2 construct: expressed in transfected cells; host or cells: A431
# T2 sequence (O94956 1-709): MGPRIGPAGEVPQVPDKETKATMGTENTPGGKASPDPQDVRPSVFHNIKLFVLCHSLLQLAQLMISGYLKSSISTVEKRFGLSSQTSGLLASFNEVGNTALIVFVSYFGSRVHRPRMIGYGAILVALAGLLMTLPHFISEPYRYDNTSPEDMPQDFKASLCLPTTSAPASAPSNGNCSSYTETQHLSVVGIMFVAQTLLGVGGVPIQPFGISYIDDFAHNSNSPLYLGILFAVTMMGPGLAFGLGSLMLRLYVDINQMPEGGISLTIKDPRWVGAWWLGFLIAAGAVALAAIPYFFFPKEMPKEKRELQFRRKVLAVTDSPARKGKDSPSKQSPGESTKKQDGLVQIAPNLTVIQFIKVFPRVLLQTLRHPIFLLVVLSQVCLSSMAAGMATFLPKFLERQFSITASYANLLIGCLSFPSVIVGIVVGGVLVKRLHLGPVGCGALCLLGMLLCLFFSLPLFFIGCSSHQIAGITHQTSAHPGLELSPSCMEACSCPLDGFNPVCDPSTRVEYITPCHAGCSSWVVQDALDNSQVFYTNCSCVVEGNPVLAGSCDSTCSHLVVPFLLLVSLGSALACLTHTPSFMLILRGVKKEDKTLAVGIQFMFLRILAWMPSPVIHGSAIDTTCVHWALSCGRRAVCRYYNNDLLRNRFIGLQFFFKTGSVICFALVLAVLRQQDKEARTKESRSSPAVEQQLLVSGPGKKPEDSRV
# Description: (§1) The human epidermoid carcinoma cell (A431) overexpressing OATP1A2, OATP1B1, OATP1B3, or OATP2B1 transporters and their mock control cells were generated previously as described. , Cell culture was maintained in DMEM supplemented with 10% fetal bovine serum, 2 mM L-glutamine, 100 units/mL penicillin, and 100 μg/mL streptomycin at 37 °C and 5% CO2.
# (§2) The inhibitory effects of mycotoxins (Z14S and Z14GA) were examined using indirect fluorescence assays, where pyranine and SR101 were used as fluorescent substrates. , A431 cells overexpressing OATP1A2, OATP1B1/3, or OATP2B1 and their mock-transfected controls were seeded at a density of 8 × 10^4 cells/well onto 96-well plates and incubated for 18–22 h prior to transport measurements. The next day, plated cells were washed three times with 200 μL of PBS (phosphate-buffered saline, pH 7.4) and preincubated with 50 μL of transport buffer (pH 5.5; 125 mM NaCl, 4.8 mM KCl, 1.2 mM CaCl2, 1.2 mM KH2PO4, 12 mM MgSO4, 25 mM MES, and 5.6 mM glucose) with or without increasing concentrations of the mycotoxins tested (0.001–20 μM) for 5 min at 37 °C. The transport inhibition measurements were initiated by adding 50 μL of transport buffer containing the proper fluorescent substrate SR101 (0.5 μM, OATP1A2) or pyranine (10 μM for OATP1B1 or 20 μM for OATP1B3 and OATP2B1). After 10 min (OATP1A2), 15 min (OATP1B1 and OATP2B1), or 30 min (OATP1B3) incubation, the transport was terminated by washing the cells three times with ice-cold PBS. Regarding the individual OATP assays, we applied different incubation times to keep the substrate uptake in the linear range, , avoiding substrate depletion or saturation effects, as it is indispensable for the accurate assessment. Using an Enspire plate reader (PerkinElmer, Waltham, MA), the fluorescence was measured at excitation/emission wavelengths of 460/510 nm (pyranine) or 586/605 nm (SR101).
# (§3) OATP-mediated transport was obtained by subtracting the activity of the mock control cells from the activity of the OATP-expressing cells. The transport activity (%) of the OATPs was calculated by comparing the fluorescence signal obtained in the absence of the compounds tested (set to 100%).
# [3] = molecular target: T3, OATP1A2 (Homo sapiens, UniProt P46721); assay: OATP1A2-mediated SR101 uptake in overexpressing A431 cells; format: cell-based
# T3 construct: expressed in transfected cells; host or cells: A431
# T3 sequence (P46721 1-670): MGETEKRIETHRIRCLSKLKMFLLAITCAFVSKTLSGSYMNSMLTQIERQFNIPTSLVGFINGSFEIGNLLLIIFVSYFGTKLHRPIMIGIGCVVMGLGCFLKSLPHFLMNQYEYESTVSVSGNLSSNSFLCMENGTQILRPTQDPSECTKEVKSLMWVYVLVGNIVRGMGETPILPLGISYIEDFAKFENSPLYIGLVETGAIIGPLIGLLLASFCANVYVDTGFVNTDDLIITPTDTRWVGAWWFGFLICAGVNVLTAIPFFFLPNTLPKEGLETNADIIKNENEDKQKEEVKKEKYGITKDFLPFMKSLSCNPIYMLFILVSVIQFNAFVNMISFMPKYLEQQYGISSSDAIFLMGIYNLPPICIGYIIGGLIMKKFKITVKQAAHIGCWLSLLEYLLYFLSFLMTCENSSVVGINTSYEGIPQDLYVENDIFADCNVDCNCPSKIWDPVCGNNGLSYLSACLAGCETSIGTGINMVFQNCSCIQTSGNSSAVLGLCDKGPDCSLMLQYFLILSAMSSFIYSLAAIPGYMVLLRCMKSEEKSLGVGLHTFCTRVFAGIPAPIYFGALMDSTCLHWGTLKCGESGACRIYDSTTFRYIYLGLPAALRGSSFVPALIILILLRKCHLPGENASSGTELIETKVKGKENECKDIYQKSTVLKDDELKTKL
# Description: as §1
# as §2, with “Regarding the individual OATP assays, we applied different incubation times to keep the substrate uptake in the linear range, , avoiding substrate depletion or saturation effects, as it is indispensable for the accurate assessment.” left out
# as §3
SMILES,"inhibition of CYP3A4 (decrease in metabolite formation) ([1]; each 20 μM, 180 min)","IC50 ([2]; pyranine 20 μM, 15 min, A431 cells, read-out: IC50 for OATP2B1) [nM]","IC50 ([3]; SR101 0.5 μM, 10 min, A431 cells, read-out: IC50 for OATP1A2) [nM]","inhibition at 180 min, 20 μM ([1]; human, pH 7.5, each 20 μM, read-out: inhibition of CYP3A4 (decrease in metabolite formation)) [%]",IC50 [2] [nM],"effect on OATP2B1-mediated dye uptake ([2]; 5 μM, pyranine substrate)","decrease in OATP2B1 transport activity ([2]; 20 μM, pyranine substrate, A431 cells)",stronger inhibition on OATP2B1 compared to ZEN ([2]; ratio of IC50 values vs ZEN),IC50 [3] [nM],"decrease in OATP1A2 transport activity ([3]; 20 μM, SR101 substrate, A431 cells)"
"C[C@H]1CCCC(=O)CCC/C=C/c2cc(O[C@@H]3O[C@H](C(=O)O)[C@@H](O)[C@H](O)[C@H]3O)cc(O)c2C(=O)O1 [Z14GA, Zearalenone-14-glucuronide]",no effects,1100,> 20000,–,–,–,–,–,–,–
"C[C@H]1CCCC(=O)CCC/C=C/c2cc(OS(=O)(=O)O)cc(O)c2C(=O)O1 [Z14S, zearalenone-14-sulfate]",–,–,–,~45,340,completely abolished,80–100%,approximately 7 fold,1400,80–100%
